Assays:
Format in all cases: cell-based, human
[1] = tested on: monocytes from PBMC differentiated into M2 macrophage; test: M2 macrophage differentiation assay; settings: CD163, CD11c, CD206; donor 1 and 2
Source text: The purpose of this study was to evaluate the effects of lobeglitazone and other thiazolidinediones on M2 macrophage differentiation. The test articles and vehicles used in this study were lobeglitazone sulfate, pioglitazone HCl, and rosiglitazone.
M2 macrophage differentiation assay timeline was as follows in Table 10.
• (1) Isolate monocytes from PBMC using StemCell® monocyte isolation kit • (2) Count cell and adjust the cell density to 0.5×10^6 cells/ml with fresh complete differentiation medium. Add 5 μL M-CSF stock ([…]) to each 5 ml cell mixture. • (3) Seed isolated monocyte 100 μL per well on 96-well plate. • (4) Add test articles as the plate map using D300e (final concentration in μM). • (5) Differentiate the monocyte to macrophage in the presence of M-CSF to […] for 4 days. • (6) On day 4, add additional medium containing M-CSF. • (7) Add test compounds using D300e (final volume=[…]). • (8) On day 6, add IL-4 at 5× final concentration (IL-4 stock 0.1 mg/ml: dilute 10 μl stock into 10 ml medium for 100 ng/ml. Add 50 μl 100 ng/ml IL-4 to each well containing 200 μL medium to reach 20 ng/ml). • (9) On day 8, spin down the plates at 300×g for 5 min and collect the supernatant for cytokine quantification using MSD. • (10) M2 associated macrophage cytokines of interest are listed below in Table 12.
• (11) Collect cells for flow analysis of viability/CD11c/CD163/CD206.
Flow cytometry and surface marker CD163, CD11c, and CD206 were applied to characterize M2 repolarization. No stain and all stain with surface marker antibody to confirm the optimization of gating strategy.

[2] = tested on: monocytes from PBMC, M1-to-M2 macrophage repolarization; test: M1-to-M2 macrophage repolarization assay; settings: cytokine analysis (MSD), day 14 supernatant
Source text: The purpose of this study was to evaluate the effects of lobeglitazone and other thiazolidinediones on M1-to-M2 macrophage repolarization. The test articles and vehicles used in this study were lobeglitazone sulfate, pioglitazone HCl, and rosiglitazone.
M1-to-M2 macrophage repolarization assay timeline were as follows in Table 13.
Drug concentrations tested in the M1 differentiation assay are as in Table 14.
• (1) Isolate monocytes from PBMC using StemCell® monocyte isolation kit. • (2) Count cell and adjust the cell density to 0.5×10^6 cells/ml with fresh complete differentiation medium (add 10 μl M-CSF stock (100 μg/ml) 10 ml cell mixture to a final concentration of 50 ng/ml). • (3) Seed isolated monocyte 100 μL per well on 96-well plate. • (4) On day 4, add additional 100 μl medium containing M-CSF • (5) On day 6, add stimulator at 5× final concentration (200 μL medium in each well) to a final concentration of 50 ng/ml. • (6) On day 8, remove medium and replenish with 200 μL cytokine free medium, then add test compound (final concentration in μM) and incubate for 4 days. • (7) On day 12, add IL-4 and incubate for 2 days (add 50 μL of 100 ng/ml IL-4 to each well containing 200 μL medium to reach 20 ng/ml). • (8) On day 14, spin down the plates at 300×g for 5 min and collect the supernatant for cytokine quantification. • (9) M1 and M2 associated macrophage cytokines of interest are as follows in Table 15.
The cells are then collected for flow analysis of viability/CD11c/CD163/CD206.
Cell surface marker CD163, CD11c, and CD206 were applied to characterize M2 repolarization via flow cytometry. Controls included No stain and staining with all surface marker antibodies to confirm the optimization of gating strategy.

[3] = tested on: monocytes differentiated to M1 macrophage; test: M1 macrophage differentiation assay; settings: TNF-α, IL-1b, IL-6, IL-12, IL-23 in supernatant on day 7 (MSD); concentrations of Table 9
Source text: The purpose of this study was to evaluate the effects of lobeglitazone and other thiazolidinediones on M1 macrophage differentiation. The test articles and vehicles used in this study were lobeglitazone sulfate, pioglitazone HCl, and rosiglitazone.
M1 macrophage differentiation assay timeline was as follows in Table 8.
Drug concentrations tested in the M1 differentiation assay are as in Table 9.
• (1) Revive frozen monocytes. • (2) Count cells and adjust the cell density to 0.5×10^6 cells/ml with fresh complete differentiation medium (RPMI1640+10% FBS+1% PS plus GM-CSF or M-CSF at 50 ng/ml). • (3) Seed isolated monocyte 100 μL per well on 96-well plate. • (4) Add test articles as the plate map using D300e (final concentration in μM). • (5) Differentiate the monocyte to macrophage in the presence of GM-CSF to M1, or M-CSF to M2 for 5 days. • (6) On day 5, add cytokines at 2× final concentration. • (6a) Prepare medium containing GM-CSF for M1 and M-CSF for M2. • (6b) Add corresponding activator to reach 2× final working concentration: (i) IFNγ stock 0.2 mg/ml: add 2.5 μL stock into 5 ml complete differentiation medium for 100 ng/ml; (ii) LPS stock 1.0 mg/ml: dilute to 20 μg/ml by mixing 2 μL stock into 100 μl medium; then add 10 μl 20 μg/ml LPS to 5 ml complete differentiation medium for 40 ng/ml; (iii) IL-4 stock 0.1 mg/ml: dilute 2 μL stock into 5 ml complete differentiation medium for 40 ng/ml. • (6c) Add 100 μL cytokine containing differentiating medium to each well, and total volume of each well is 200 μL. • (6d) Add test compound again using D300e. Make sure to set the final volume as 200 μL. • (7) Incubate cytokine and test compound for 48 hours. • (8) On day 7, spin down the plates at 300×g for 5 min and collect the supernatant for cytokine quantification using MSD. • (9) M1 associated macrophage cytokines TNF-α, IL-1b, IL-6, IL-12, and IL-23 were quantified.

Row | SMILES | concentration at which M2 repolarization was promoted (M2 macrophage surface markers, flow cytometry) [1] | concentration showing remarkable promotion of MDC expression [2] | M1 macrophage cytokines expression [3]
1 | CCc1ccc(CCOc2ccc(CC3SC(=O)NC3=O)cc2)nc1.Cl (racemic) [pioglitazone, (±)-5-[p-[2-(5-Ethyl-2-pyridyl)ethoxy]benzyl]-2,4-thiazolidinedione monohydrochloride] | ~10 µM | 5 µM | promoted the M1 macrophage cytokines in a dose-dependent manner
2 | CN(CCOc1ccc(CC2SC(=O)NC2=O)cc1)c1ccccn1 (racemic) [rosiglitazone, (RS)-5-[4-(2-[methyl(pyridin-2-yl)amino]ethoxy)benzyl]thiazolidine-2,4-dione] | ~0.4 µM | 6.4 µM | promoted the M1 macrophage cytokines in a dose-dependent manner

From patent US20250262209A1, “TREATMENT OF GASTROINTESTINAL DISEASES” (Aclipse Two, Inc., priority 2022, published 2025)
